Experiment: Colorimetric matching of mixed PFCA samples, high concentration
Text: The present inventors investigated the colorimetric responses for host (12) with “high” concentrations of PFCA (where [host]<[guest]), and “low” concentrations of PFCA (where [host]>[guest]). Generally, RGB response values will increase with increasing concentrations of PFCA until the host has been saturated; beyond the saturation limit, RGB response values are similar. When there was an excess of guest, the response values could only be used as a threshold indication for PFCA concentrations.
RGB response curves were established by combining solutions of host (12) (5.01×10^−6 M) with solutions of PFOA (0-16 ppm, 3.86×10^−5 M) in dichloromethane. […] Thus, when establishing a calibration curve, the relative proportion of free host to host−PFCA complex limiting the variability of colour response must be considered for the application.
For the “high” PFCA concentration experiment, the PFOA generated calibration curve (y=0.0401 ln(x)+0.2366, R^2=0.9677) (FIG. 17) begins to level out at ca. 2 ppm. Above that concentration, the RGB response values are difficult to differentiate.

Which ΔE (15 vs 3 ppm PFCA sample) does the source give for O=C(Nc1ccccc1-c1c2nc(c(-c3ccccc3NC(=O)C(F)(F)C(F)(F)C(F)(F)C(F)(F)C(F)(F)C(F)(F)C(F)(F)C(F)(F)C(F)(F)C(F)(F)C(F)(F)F)c3ccc([nH]3)c(-c3ccccc3NC(=O)C(F)(F)C(F)(F)C(F)(F)C(F)(F)C(F)(F)C(F)(F)C(F)(F)C(F)(F)C(F)(F)C(F)(F)C(F)(F)F)c3nc(c(-c4ccccc4NC(=O)C(F)(F)C(F)(F)C(F)(F)C(F)(F)C(F)(F)C(F)(F)C(F)(F)C(F)(F)C(F)(F)C(F)(F)C(F)(F)F)c4ccc1[nH]4)C=C3)C=C2)C(F)(F)C(F)(F)C(F)(F)C(F)(F)C(F)(F)C(F)(F)C(F)(F)C(F)(F)C(F)(F)C(F)(F)C(F)(F)F [host (12), α,α,α,α-5,10,15,20-tetrakis(2-(tricosafluorododecanoylamino)phenyl) porphyrin] here?
Its ΔE is 10.

What about the ΔE (15 vs 12 ppm PFCA sample) of the same compound?
Its ΔE is 2.

And the “[PFCA]predicted from PFOA regression” value (sample measured 0.20 ppm)?
Its value is 0.18 ppm.

— patent US20240166658A1, “PORPHYRIN DERIVATIVES AND USES THEREOF” (University of Tasmania, priority 2021, published 2024)
